Results: patent publication US20240058450A1, “BCL-XL Inhibitory Compounds Having Low Cell Permeability and Antibody Drug Conjugates Including the Same” (AbbVie Inc., priority 2014, published 2024)
pEC50, pKi: −log10 of the molar value. Read-outs that look alike come from different tables or passages of the source.

What was measured:
[1] = system: permeabilized Bcl-xL dependent Molt-4 cells; experiment: Cytochrome C release in selectively (digitonin) permeabilized Molt-4 cells; format: cell-based, human; details: 4 h treatment, read-out: Molt-4 Permeabilized Cyt C Release
Excerpt: The permeabilization of the mitochondrial outer membrane to release proteins from the intermembrane space into the cytosol is a pivotal event in the process of apoptosis. Specifically, the release of cytochrome C triggers the formation of the apoptosome which, in turn, results in caspase activation and other events that will commit the cell to undergo programmed cell death (Goldstein el al., 2005, Cell Death and Differentiation 12:453). The process of mitochondrial outer membrane permeabilization (MOMP) is controlled by the Bcl-2 family members. It is promoted by the multidomain pro-apoptotic proteins Bax and Bak which, upon activation, oligomerize on the outer mitochondrial membrane and form pores to ultimately release cytochrome C. This action is antagonized by the antiapoptotic members, including Bcl-2 and Bcl-xL. Compounds that are capable of inhibiting Bcl-2 or Bcl-xL, for example, in cells that depend upon these proteins for survival, can cause activation of Bax and or Bak, MOMP, release of cytochrome C and the mentioned downstream steps in the apoptotic process. This process of cytochrome C release can be measured in cells via Western blot of both mitochrondrial and cytosolic fractions, and can be used a proxy measurement of apoptosis in cells.
As a means of detecting the ability of a Bcl-xL inhibitor with low cell-permeability to cause release of cytochrome C, the cells can be treated with an agent that causes selective pore formation in the plasma membrane, but not the mitochondrial membrane. Specifically, the cholesterol/phospholipid ratio is much higher in the plasma membrane than the mitochondrial membrane. […] This agent forms insoluble complexes with cholesterol leading to the segregation of cholesterol from its normal phospholipid binding sites. This action, in turn, leads to the formation of holes about 40-50 Å wide in the lipid bilayer. Once the plasma membrane is permeabilized, cytosolic components able to pass over digitonin-formed holes can be washed out, including the cytochrome C that was released from mitochondria to cytosol in the apoptotic cells ((Campos, 2006, Cytometry A 69(6):515-523)).
To determine if Bcl-xL inhibitors were inducing cell death through apoptosis, cytochrome C release was measured in Bcl-xL dependent Molt-4 cells following treatment Specifically, 1×10^6 cells were treated for 4 h (37° C., 5% CO2) with the test compounds in half-log dilutions starting at 3.0 μM and ending at 0.01 μM. Cells were then processed as described in Chen et al., 2011, Mol. Cancer Ther. 10:2340-2350 (the Bcl-2/Bcl-X(L)/Bcl-w inhibitor, navitoclax, enhances the activity of chemotherapeutic agents in vitro and in vivo.).

Bcl-xL = Bcl-xL (Homo sapiens, UniProt Q07817); experiment: Time Resolved-Fluorescence Resonance Energy Transfer (TR-FRET) binding assay, competition with probe F-Bak; details: for Ki: in the presence of 1% HS, read-out: Bcl-xL Binding Ki (nM, 1% HS); for pKi: without HS, read-out: Bcl-xL Binding Ki
Bcl-xL, sequence (Q07817 whole entry): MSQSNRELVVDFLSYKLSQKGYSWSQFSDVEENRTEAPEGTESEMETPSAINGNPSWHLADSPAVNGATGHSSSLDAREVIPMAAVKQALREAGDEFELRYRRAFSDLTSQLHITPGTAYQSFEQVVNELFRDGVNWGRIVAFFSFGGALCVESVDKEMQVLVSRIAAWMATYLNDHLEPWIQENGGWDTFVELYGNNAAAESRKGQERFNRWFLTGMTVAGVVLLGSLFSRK
Procedure, shortened: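 Compounds compete with F-Bak probe for GST-Bcl-xL detected by Tb-anti-GST antibody. Serial dilutions from 50 μM (2× stock) incubated 2 h at room temperature, then read at 340 nm excitation, 520 and 495 nm emission. Ki by Wang's equation, tested without and with 1% human serum.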

[2] = system: Molt-4 human acute lymphoblastic leukemia cells; experiment: Molt-4 cell viability assay (CellTiter-Glo, 48 hours, 10% HS); format: cell-based; details: non-permeabilized cells
Procedure, shortened: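 Cells were seeded at 12,500 per well in medium with 10% human serum and exposed to a 3-fold compound dilution series from 10 μM to 0.0005 μM. After 48 h, viable cells were quantified by CellTiter-Glo luminescence. Each concentration was run in duplicate on at least 3 occasions.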

SMILES: Cc1c(-c2ccc(N3CCc4cccc(C(=O)Nc5nc6ccccc6s5)c4C3)nc2C(=O)O)cnn1CC12CC3(C)CC(C)(C1)CC(OCCOCCNCc1ccc(O[C@@H]4O[C@H](CO)[C@@H](O)[C@@H](O)[C@H]4O)cc1)(C3)C2 [Example 1.10, 3-[1-({3-[2-(2-{[4-(beta-D-allopyranosyloxy)benzyl]amino}ethoxy)ethoxy]-5,7-dimethyltricyclo[3.3.1.1^3,7]dec-1-yl}methyl)-5-methyl-1H-pyrazol-4-yl]-6-[8-(1,3-benzothiazol-2-ylcarbamoyl)-3,4-dihydroisoquinolin-2 (1H)-yl]pyridine-2-carboxylic acid]
- pEC50 ([1]; Homo sapiens, MOLT-4, 4 h): > 9.30
- Ki (Bcl-xL): 0.027 nM
- pKi (Bcl-xL): > 12.00
- EC50 ([2]; Homo sapiens, MOLT-4, 48 h): 74 nM

SMILES: Cc1c(-c2ccc(N3CCc4cccc(C(=O)Nc5nc6ccccc6s5)c4C3)nc2C(=O)O)cnn1CC12CC3(C)CC(C)(C1)CC(OCCNCCCP(=O)(O)O)(C3)C2 [Example 1.14, 6-[8-(1,3-benzothiazol-2-ylcarbamoyl)-3,4-dihydroisoquinolin-2 (1H)-yl]-3-{1-[(3,5-dimethyl-7-{2-[(3-phosphonopropyl)amino]ethoxy)tricyclo[3.3.1.1^3,7]dec-1-yl)methyl]-5-methyl-1H-pyrazol-4-yl}pyridine-2-carboxylic acid]
- pEC50 ([1]; Homo sapiens, MOLT-4, 4 h): > 9.30
- Ki (Bcl-xL): 0.18 nM
- pKi (Bcl-xL): > 12.00
- EC50 ([2]; Homo sapiens, MOLT-4, 48 h): 415 nM

SMILES: Cc1c(-c2ccc(N3CCc4cccc(C(=O)Nc5nc6ccccc6s5)c4C3)nc2C(=O)O)cnn1CC12CC3(C)CC(C)(C1)CC(OCCN(CCCP(=O)(O)O)C1CCNCC1)(C3)C2 [Example 1.26, 6-[8-(1,3-benzothiazol-2-ylcarbamoyl)-3,4-dihydroisoquinolin-2 (1H)-yl]-3-{1-[(3,5-dimethyl-7-{2-[(3-phosphonopropyl)(piperidin-4-yl)amino]ethoxy}tricyclo[3.3.1.1^3,7]dec-1-yl)methyl]-5-methyl-1H-pyrazol-4-yl}pyridine-2-carboxylic acid]
- pEC50 ([1]; Homo sapiens, MOLT-4, 4 h): > 9.30
- Ki (Bcl-xL): 0.11 nM
- pKi (Bcl-xL): > 12.00
- EC50 ([2]; Homo sapiens, MOLT-4, 48 h): 2330 nM

SMILES: Cc1c(-c2ccc(-c3ccc4c(c3)N(C(=O)Nc3nc5ccccc5s3)CCC4)nc2C(=O)O)cnn1CC12CC3(C)CC(C)(C1)CC(OCCNCCS(=O)(=O)O)(C3)C2 [Example 1.24, 6-[1-(1,3-benzothiazol-2-ylcarbamoyl)-1,2,3,4-tetrahydroquinolin-7-yl]-3-{1-[(3,5-dimethyl-7-{2-[(2-sulfoethyl)amino]ethoxy}tricyclo[3.3.1.1^3,7]dec-1-yl)methyl]-5-methyl-1H-pyrazol-4-yl}pyridine-2-carboxylic acid]
- pEC50 ([1]; Homo sapiens, MOLT-4, 4 h): > 9.30
- Ki (Bcl-xL): 0.074 nM
- pKi (Bcl-xL): > 12.00
- EC50 ([2]; Homo sapiens, MOLT-4, 48 h): 390 nM

SMILES: Cc1c(-c2ccc(N3CCc4cccc(C(=O)Nc5nc6ccccc6s5)c4C3)nc2C(=O)O)cnn1CC12CC3(C)CC(C)(C1)CC(OCCNCCCS(=O)(=O)O)(C3)C2 [Example 1.5, 6-[8-(1,3-benzothiazol-2-ylcarbamoyl)-3,4-dihydroisoquinolin-2 (1H)-yl]-3-{1-[(3,5-dimethyl-7-{2-[(3-sulfopropyl)amino]ethoxy}tricyclo[3.3.1.1^3,7]dec-1-yl)methyl]-5-methyl-1H-pyrazol-4-yl}pyridine-2-carboxylic acid]
- pEC50 ([1]; Homo sapiens, MOLT-4, 4 h): 9.00 to 9.30
- Ki (Bcl-xL): 0.26 nM
- pKi (Bcl-xL): 10.72
- EC50 ([2]; Homo sapiens, MOLT-4, 48 h): 189 nM

SMILES: Cc1c(-c2ccc(N3CCc4cccc(C(=O)Nc5nc6ccccc6s5)c4C3)nc2C(=O)O)cnn1CC12CC3(C)CC(C)(C1)CC(OCCNCCC(=O)O)(C3)C2 [Example 1.25, 6-[8-(1,3-benzothiazol-2-ylcarbamoyl)-3,4-dihydroisoquinolin-2 (1H)-yl]-3-{1-[(3-{2-[(2-carboxyethyl)amino]ethoxy}-5,7-dimethyltricyclo[3.3.1.1^3,7]dec-1-yl)methyl]-5-methyl-1H-pyrazol-4-yl)pyridine-2-carboxylic acid]
- pEC50 ([1]; Homo sapiens, MOLT-4, 4 h): > 9.30
- Ki (Bcl-xL): 0.083 nM
- pKi (Bcl-xL): > 12.00
- EC50 ([2]; Homo sapiens, MOLT-4, 48 h): 430 nM

SMILES: Cc1c(-c2ccc(N3CCc4cccc(C(=O)Nc5nc6ccccc6s5)c4C3)nc2C(=O)O)cnn1CC12CC3(C)CC(C)(C1)CC(OCCN(CCNCCC(=O)O)CCS(=O)(=O)O)(C3)C2 [Example 1.38, 6-[8-(1,3-benzothiazol-2-ylcarbamoyl)-3,4-dihydroisoquinolin-2 (1H)-yl]-3-{1-[(3-{2-[{2-[(2-carboxyethyl)amino]ethyl}(2-sulfoethyl)amino]ethoxy}-5,7-dimethyltricyclo[3.3.1.1^3,7]dec-1-yl)methyl]-5-methyl-1H-pyrazol-4-yl}pyridine-2-carboxylic acid]
- pEC50 ([1]; Homo sapiens, MOLT-4, 4 h): > 9.30
- Ki (Bcl-xL): 0.203 nM
- pKi (Bcl-xL): > 12.00
- EC50 ([2]; Homo sapiens, MOLT-4, 48 h): 245 nM

SMILES: Cc1c(-c2ccc(N3CCc4cccc(C(=O)Nc5nc6ccccc6s5)c4C3)nc2C(=O)O)cnn1CC12CC3(C)CC(C)(C1)CC(OCCN(CCS(=O)(=O)O)C(=O)[C@@H](N)CC(=O)O)(C3)C2 [Example 1.44, 3-{1-[(3-{2-[L-alpha-aspartyl(2-sulfoethyl)amino]ethoxy}-5,7-dimethyltricyclo[3.3.1.1^3,7]dec-1-yl)methyl]-5-methyl-1H-pyrazol-4-yl}-6-[8-(1,3-benzothiazol-2-ylcarbamoyl)-3,4-dihydroisoquinolin-2 (1H)-yl]pyridine-2-carboxylic acid]
- pEC50 ([1]; Homo sapiens, MOLT-4, 4 h): > 9.30
- Ki (Bcl-xL): 0.282 nM
- pKi (Bcl-xL): > 12.00
- EC50 ([2]; Homo sapiens, MOLT-4, 48 h): 1260 nM

SMILES: Cc1c(-c2ccc(N3CCc4cccc(C(=O)Nc5nc6ccccc6s5)c4C3)nc2C(=O)O)cnn1CC12CC3(C)CC(C)(C1)CC(OCCNC(=O)[C@H](CC(=O)O)NCCC(=O)O)(C3)C2 [Example 1.32, 6-[8-(1,3-benzothiazol-2-ylcarbamoyl)-3,4-dihydroisoquinolin-2 (1H)-yl]-3-(1-{[3-(2-{[N-(2-carboxyethyl)-L-alpha-aspartyl]amino}ethoxy)-5,7-dimethyltricyclo[3.3.1.1^3,7]dec-1-yl]methyl}-5-methyl-1H-pyrazol-4-yl}pyridine-2-carboxylic acid]
- pEC50 ([1]; Homo sapiens, MOLT-4, 4 h): > 9.30
- Ki (Bcl-xL): 0.28 nM
- pKi (Bcl-xL): > 12.00
- EC50 ([2]; Homo sapiens, MOLT-4, 48 h): 708 nM

SMILES: Cc1c(-c2ccc(N3CCc4cccc(C(=O)Nc5nc6ccccc6s5)c4C3)nc2C(=O)O)cnn1CC12CC3(C)CC(C)(C1)CC(OCCN(C)C(=O)[C@@H](N)CS(=O)(=O)O)(C3)C2 [Example 1.13, 6-[8-(1,3-benzothiazol-2-ylcarbamoyl)-3,4-dihydroisoquinolin-2 (1H)-yl]-3-{1-[(3,5-dimethyl-7-{2-[methyl(3-sulfo-L-alanyl)amino]ethoxy}tricyclo[3.3.1.1^3,7]dec-1-yl)methyl]-5-methyl-1H-pyrazol-4-yl}pyridine-2-carboxylic acid]
- pEC50 ([1]; Homo sapiens, MOLT-4, 4 h): > 9.30
- Ki (Bcl-xL): 0.2 nM
- pKi (Bcl-xL): > 12.00
- EC50 ([2]; Homo sapiens, MOLT-4, 48 h): 257 nM

SMILES: Cc1c(-c2ccc(-c3ccc4c(c3)N(C(=O)Nc3nc5ccccc5s3)CCC4)nc2C(=O)O)cnn1CC12CC3(C)CC(C)(C1)CC(OCCNCCP(=O)(O)O)(C3)C2 [Example 1.20, 6-[1-(1,3-benzothiazol-2-ylcarbamoyl)-1,2,3,4-tetrahydroquinolin-7-yl]-3-{1-[(3,5-dimethyl-7-(2-[(2-phosphonoethyl)amino]ethoxy}tricyclo[3.3.1.1^3,7]dec-1-yl)methyl]-5-methyl-1H-pyrazol-4-yl}pyridine-2-carboxylic acid]
- pEC50 ([1]; Homo sapiens, MOLT-4, 4 h): > 9.30
- Ki (Bcl-xL): 0.47 nM
- pKi (Bcl-xL): > 12.00
- EC50 ([2]; Homo sapiens, MOLT-4, 48 h): 774 nM

SMILES: Cc1c(-c2ccc(N3CCc4cccc(C(=O)Nc5nc6ccccc6s5)c4C3)nc2C(=O)O)cnn1CC12CC3(C)CC(C)(C1)CC(OCCN(C)C(=O)[C@@H](N)CCCC[N+](C)(C)C)(C3)C2 [Example 1.29, N-[(5S)-5-amino-6-{[2-({3-[(4-{6-[8-(1,3-benzothiazol-2-ylcarbamoyl)-3,4-dihydroisoquinolin-2 (1H)-yl]-2-carboxypyridin-3-yl}-5-methyl-1H-pyrazol-1-yl)methyl]-5,7-dimethyltricyclo[3.3.1.1^3,7]dec-1-yl}oxy)ethyl](methyl)amino}-6-oxohexyl]-N,N-dimethylmethanaminium]
- pEC50 [1]: > 9.30
- Ki (Bcl-xL): 0.033 nM
- pKi (Bcl-xL): 11.05
- EC50 [2]: 935 nM
